The text below walks through data of patent publication EP4772505A1, “COMPOUND FOR DEGRADING ANDROGEN RECEPTOR AND MEDICAL USE THEREOF” (Ubix Therapeutics, Inc., priority 2023, dated 2025).

This assay has as its target T1, Androgen Receptor (AR) (Homo sapiens, UniProt P10275).
T1 sequence (P10275 1-920): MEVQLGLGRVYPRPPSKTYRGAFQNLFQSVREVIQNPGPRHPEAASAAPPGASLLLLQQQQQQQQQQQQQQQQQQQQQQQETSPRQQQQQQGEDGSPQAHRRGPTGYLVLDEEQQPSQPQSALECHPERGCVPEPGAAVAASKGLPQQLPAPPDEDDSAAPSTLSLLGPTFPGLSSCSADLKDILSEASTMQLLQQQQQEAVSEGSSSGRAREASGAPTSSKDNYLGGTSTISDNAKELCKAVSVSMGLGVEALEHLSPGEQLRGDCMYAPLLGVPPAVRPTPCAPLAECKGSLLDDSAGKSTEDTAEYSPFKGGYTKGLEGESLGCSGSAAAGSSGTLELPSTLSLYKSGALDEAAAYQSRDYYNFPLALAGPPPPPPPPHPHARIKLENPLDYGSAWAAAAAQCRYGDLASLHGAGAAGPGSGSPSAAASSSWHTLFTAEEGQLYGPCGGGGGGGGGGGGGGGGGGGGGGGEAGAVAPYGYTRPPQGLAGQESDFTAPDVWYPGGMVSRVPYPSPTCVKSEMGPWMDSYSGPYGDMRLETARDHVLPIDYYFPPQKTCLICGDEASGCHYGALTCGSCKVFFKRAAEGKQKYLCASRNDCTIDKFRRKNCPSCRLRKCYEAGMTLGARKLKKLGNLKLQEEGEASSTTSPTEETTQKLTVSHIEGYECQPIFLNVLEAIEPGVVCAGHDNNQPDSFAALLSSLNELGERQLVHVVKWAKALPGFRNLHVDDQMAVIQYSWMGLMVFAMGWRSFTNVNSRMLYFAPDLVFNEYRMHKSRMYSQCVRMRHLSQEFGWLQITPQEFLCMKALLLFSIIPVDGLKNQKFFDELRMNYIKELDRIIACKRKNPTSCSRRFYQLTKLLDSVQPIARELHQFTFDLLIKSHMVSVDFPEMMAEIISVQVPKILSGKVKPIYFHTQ
In words: Measurement of AR protein degradation in VCaP cells by Western blotting. The format is cell-based. Set-up: endogenous in cells; host or cells: VCaP. Conditions: read-out: AR degradation in VCaP cells (%). The protocol: The amount of AR protein present in LNCaP or VCaP cells was measured after treating them with the synthesized compound. The amount of AR protein was measured using Western blotting. The protocol for the experiments using LNCaP or VCaP cells was as follows.
[Culture] LNCaP cells were resuspended in RPMI1640 medium + HEPES (Hyclone, SH30255.01), 10% FBS (Hyclone, SV30207.02), and 1% Penicillin-streptomycin (Welgene, LS 202-02). 3 x 10^5 cells/mL were seeded in 12-well plates (1 mL per well) and cultured for 3 days. VCaP cells were resuspended in IMDM MEDIUM (Hyclone, SH30228.01), 20% FBS (Hyclone, SV30207.02), and 1% Penicillin-streptomycin (Welgene, LS 202-02), seeded at 9 x 10^5/mL in 1 mL per 12-well plate, and cultured for 3 days.
[Compound Treatment] 10 µL of 100x stock (e.g., 0.1, 1, 10 µM) compound solution at the final compound treatment concentration (e.g., 0.001, 0.01, 0.1 µM) was added to each well in 1 mL media, and cells were harvested after 20 hours. For DC50 measurement, 100x stock (0.01, 0.1, 1, 10, 100, 1000 µM) compound solutions at the final compound treatment concentration (0.0001, 0.001, 0.01, 0.1, 1, 10 µM) were used.
[Cell lysis] The cell pellet was suspended using 1% SDS lysis buffer (50 mM Tris, 1 mM EDTA, 1% SDS, pH 8.0, 0.5 mM PMSF, 1x Protease/Phosphatase inhibitor Cocktail (Cell Signaling Technology, 5872S)), and sonication (70% AMP, 10 cycles (30 sec ON/59 sec OFF)) was performed. After centrifugation at 4°C and 20,000 g for 20 minutes, the cell lysate was obtained and transferred to a new tube.
[Protein Quantification] A BCA protein assay (SMART™ BCA Protein Assay Kit, iNtRON Biotechnology, 21071) was performed using a 96-well microplate. 5 µL of cell lysate and 5 µL of 1% SDS lysis buffer were added to each well of the 96-well plate, followed by an additional 200 µL of BCA reagent (Reagent A: Reagent B = 50:1). The wells were incubated at 37°C for 30 minutes and cooled to room temperature for 10 minutes. After shaking for 10 seconds, the absorbance was measured at a wavelength of 562 nm. The unknown protein concentration was determined using a BSA standard curve (0, 0.125, 0.25, 0.5, 1, 2 mg/mL). Western blotting samples were prepared by mixing cell lysate, 1% SDS lysis buffer, 4x NuPAGE™ LDS Sample buffer (Invitrogen, NP0008), and 10X NuPAGE™ Sample Reducing Agent (Invitrogen, NP0009) and boiling at 70°C for 10 minutes.
[Electrophoresis] 10 µg of protein sample was loaded into each well of a NuPAGE™ 4 to 12%, Bis-Tris, 1.0 mm Mini Protein Gel, 15-well, 17-well, or 26-well (Invitrogen, NP0323BOX, NP0329BOX, or WG1403BOX) and electrophoresed for 40 minutes using NuPAGE™MES SDS Running Buffer (Invitrogen, NP0002) at 200 V (constant V).
[Transfer] Transfer was performed for 15 or 18 minutes using the electrophoresed gel and the Trans-Blot® Turbo™ Transfer Starter System (Bio-RAD, #17001918, Mini Nitrocellulose) at 1.3 A (constant A) and 25 V (limit V). To confirm protein transfer, 15 mL of Ponceau S solution (Sigma, P7170-1L) was used to stain for 1 minute, and then washed to check the degree of transfer.
[Blocking] The membrane for AR and GAPDH detection was blocked with 5% skim milk/0.2% TBST (Skim milk: BD, 232100/ 20X TBS: Biosesang, TR2008-100-00/ 10% Tween 20 Solution: Bio-RAD, #161-0781) for 45 minutes.
[Antibodies and Detection] Primary AR antibody (Androgen Receptor: CST, 5153S) was mixed with 5% skim milk/0.2% TBST at a ratio of 1:1,000 and reacted at room temperature for 3 hours or at 4°C overnight. Primary GAPDH antibody (CST, 2118S) was mixed with 5% skim milk/0.2% TBST at a ratio of 1:2,000 and reacted at room temperature for 3 hours or at 4°C overnight. Afterwards, TBST (0.2% Tween 20) was used for washing three times every 5 minutes. Secondary antibody to AR antibody, Anti-rabbit IgG, HRP-linked Antibody (CST, 7074S), was mixed with 5% skim milk/0.2% TBST at a ratio of 1:5,000 and reacted at room temperature for 45 minutes. […]
For orientation: In western blotting, separated proteins are transferred to a membrane and probed.

Setting [1] is: 10 nM compound, 20 hours, VCaP cells.
[2] abbreviates: 100 nM compound, 20 hours, VCaP cells.

Where two headings read alike, the source gives them in different places.

`N#Cc1ccc(N2CCC(C(=O)Nc3ccc(OC4CCN(CC5CCN(c6ccc(NC7CCC(=O)NC7=O)cc6F)CC5)CC4)cn3)CC2)c(F)c1Cl` (stereo not shown) [Example 12, 1-(3-chloro-4-cyano-2-fluorophenyl)-N-(5-((1-((1-(4-((2,6-dioxopiperidin-3-yl)amino)-2-fluorophenyl)piperidin-4-yl)methyl)piperidin-4-yl)oxy)pyridin-2-yl)piperidine-4-carboxamide]: where the note is “VCaP, 20 h”, the Dmax at 0.01 µM came to 94% and the Dmax at 0.1 µM is 98%.

On to `COc1cc(N2CCC(C(=O)Nc3ccc(OC4CCN(CC5CCN(c6ccc(NC7CCC(=O)NC7=O)cc6F)CC5)CC4)cn3)CC2)ccc1C#N` (stereo not shown) [Example 13, 1-(4-cyano-3-methoxyphenyl)-N-(5-((1-((1-(4-((2,6-dioxopiperidin-3-yl)amino)-2-fluorophenyl)piperidin-4-yl)methyl)piperidin-4-yl)oxy)pyridin-2-yl)piperidine-4-carboxamide], for which the Dmax at 0.01 µM under setting [1] was 95%. Moreover, the Dmax at 0.1 µM under setting [2] stood at 100%.

With `N#Cc1ccc(N2CCC(C(=O)Nc3ccc(OC4CCN(CC5CCN(c6ccc(NC7CCC(=O)NC7=O)cc6F)CC5)CC4)nn3)CC2)c(F)c1Cl` (stereo not shown) [Example 15, 1-(3-chloro-4-cyano-2-fluorophenyl)-N-(6-((1-((1-(4-((2,6-dioxopiperidin-3-yl)amino)-2-fluorophenyl)piperidin-4-yl)methyl)piperidin-4-yl)oxy)pyridazin-3-yl)piperidine-4-carboxamide], under “VCaP, 20 h”, the Dmax at 0.01 µM was 98% and the Dmax at 0.1 µM was determined as 100%.

Take `COc1cc(N2CCC(C(=O)Nc3ccc(OC4CCN(CC5CCN(c6ccc(NC7CCC(=O)NC7=O)cc6F)CC5)CC4)nn3)CC2)ccc1C#N` (stereo not shown) [Example 16, 1-(4-cyano-3-methoxyphenyl)-N-(6-((1-((1-(4-((2,6-dioxopiperidin-3-yl)amino)-2-fluorophenyl)piperidin-4-yl)methyl)piperidin-4-yl)oxy)pyridazin-3-yl)piperidine-4-carboxamide]: the Dmax at 0.01 µM under setting [1] was determined as 99%. The Dmax at 0.1 µM under setting [2] stood at 100%.

In the case of `N#Cc1ccc(N2CCC(C(=O)Nc3ccc(OC4CCN(CC5CCN(c6ccc(NC7CCC(=O)NC7=O)cc6Cl)CC5)CC4)cn3)CC2)cc1C(F)(F)F` (stereo not shown) [Example 17, N-(5-((1-((1-(2-chloro-4-((2,6-dioxopiperidin-3-yl)amino)phenyl)piperidin-4-yl)methyl)piperidin-4-yl)oxy)pyridin-2-yl)-1-(4-cyano-3-(trifluoromethyl)phenyl)piperidine-4-carboxamide], where the note is “VCaP, 20 h”, the Dmax at 0.01 µM is 75% and the Dmax at 0.1 µM was found to be 97%.
